Assay results as given in patent US10568913B2, “Method for generating mature β-like cells” (The University of Western Australia, priority 2013, dated 2020).

Columns and labels:
MIN6 cells = assay: Glucose stimulated insulin secretion in highly passaged MIN6 cells; assay type: cell-based, mouse; conditions: FIG. 20, 21
Procedure: The differentiated cells were washed twice with warm PBS. After pre-incubation with Krebs-Ringer buffer at 37° C. for 90 min, the cells were incubated at 37° C. for 60 min with basal D-glucose (2.75 mM) or stimulus D-glucose (27.5 mM). Then each conditioned medium was collected to determine the insulin concentration using an insulin ELISA kit (Mercodia AB, Uppsala, Sweden). MIN6 cells were routinely maintained in a published protocol which contains Dulbecco's modified Eagle's medium (DMEM) containing 25 mM glucose, supplemented with 10% fetal calf serum, 2 mM L-glutamine, 25 mM Hepes, and 285 μM 2-mercaptoethanol. MIN6 cells presented in this study were at passages 30-40 (low passage, LP) or passages 60-70 (high passage, HP). All assays used MIN6 grown to 70-80% confluence unless otherwise stated.

Ngn3+ islet progenitors = assay: DsRed+ cell differentiation from purified Ngn3-GFP+ progenitors (Ngn3-GFP/RIP-DsRed mice); assay type: cell-based, mouse
Text: (§1) Approximately 7,500 E15.5 [at which the number of Ngn3^+ progenitors is peaked] mouse fetuses from both MIPGFP and Ngn3-GPF/RIP-DsRed lines were used for enrichment/purification of Ngn3^+ progenitors. Mouse pancreases were dissected under a stereoscope (Olympus, Tokyo, Japan). Eleven human fetal pancreases were collected from 18-22 week-fetuses (Table 1) and minced. Both mouse and human pancreases were enzymatically dissociated into single cells under aseptic conditions. Rat anti-E-cadherin (E-cad, also known as CD324 or uvomorulin) monoclonal antibody IgG2a (Invitrogen, Carlsbad), Alexa Fluor 647 anti-E-cad (eBioscience), rat anti-integrin α6 subunit (α6, also known as CD49f) mAb IgG2a, phycoerythrin (PE) rat anti-human α6 (Becton Dickson Biosciences, San Jose), PE anti-mouse CD133 (also known as prominin I, eBioscience), biotin rabbit anti-rat immunoglobumins, allophycocyanin (APC) rat anti-mouse CD45 and APC rat anti-mouse TER119 and streptavidin APC-Cy7, streptavidin PE-Texas Red, streptavidin APC (BD Biosciences) or streptavidin Alexa Fluor 750 (Invitrogen), were used. After each incubation with antibodies, cells were washed twice with FACS buffer (0.1% bovine serum albumin in phosphate buffered saline) and finally re-suspended in this buffer containing 1 μg/ml propidium iodide (PI) or 4′,6-diamidino-2-phenylindole (DAPI) for sorting (FACSAria II, Becton Dickson Labware, Bedford). The purity of sorted cells was determined by post-sort analysis. Data presented represented cell samples with over 90% purity.
Sorted β-cell progenitor-enriched cells or Ngn3^+ β-cell progenitors were differentiated in 96-, 12- or 6-well plates (BD Labware). The basal differentiation medium is Dulbecco's Modified Eagle Medium (Invitrogen) with 5.75 or 27.5 mM D-glucose supplemented with 1% B27 (Invitrogen) and 100 μg/ml streptomycin and 100 units/ml penicillin. Growth factor-reduced Matrigel (200 μg/ml, BD Biosciences) was overlayed onto cells in the presence of various potential regulators. […]
The number of β-like cells was directly quantified under a fluorescence microscope. […]

NeuroD = assay: qRT-PCR of genes in matured insulin-secreting cells; assay type: cell-based, mouse; conditions: β-like cells treated with calcitriol
Procedure: Real time quantitative RT-PCR analysis was carried out using power SYBR Green PCR Master Mix and SYBR® Green Cells-to-Ct™ Kits purchased from Applied Biosystems (Foster City, USA). cDNA was amplified by PCR: 95° C. for 10 min, followed by 40 cycles of 95° C. for 15 sec and 60° C. for 1 min. The number of cycles of threshold (Ct) was measured with an ABI Prism 7900HT Sequence Detection System (Applied Biosystems) or a Rotor-Gene RG-3000 (Corbet Research, Sydney, Australia). All quantifications (ΔCt) were normalized with the internal 18s rRNA level (2^−Δct). Nic-containing differentiation medium was removed from the differentiated β-like cells. A warmed maturation medium was added to the differentiated cells. The maturation medium is Dulbecco's Modified Eagle Medium (Invitrogen) with 5.75 mM D-glucose without nicotinamide (10 mM), 2% B27 (Invitrogen) and 100 μg/ml streptomycin and 100 units/ml penicillin supplemented with calcitriol (10 nM). Cultures were incubated in 10% CO2 90% air at 37° C., for 4 days.

[1] = system: differentiated β-like cells; assay: Maturation of differentiated β-like cells, glucose stimulated insulin secretion; assay type: cell-based, mouse; conditions: calcitriol 10 nM, 4 days; glucose 2.75 / 27.5 mM (FIG. 19)
Procedure: The differentiated cells were washed twice with warm PBS. After pre-incubation with Krebs-Ringer buffer at 37° C. for 90 min, the cells were incubated at 37° C. for 60 min with basal D-glucose (2.75 mM) or stimulus D-glucose (27.5 mM). Then each conditioned medium was collected to determine the insulin concentration using an insulin ELISA kit (Mercodia AB, Uppsala, Sweden). Nic-containing differentiation medium was removed from the differentiated β-like cells. A warmed maturation medium was added to the differentiated cells. The maturation medium is Dulbecco's Modified Eagle Medium (Invitrogen) with 5.75 mM D-glucose without nicotinamide (10 mM), 2% B27 (Invitrogen) and 100 μg/ml streptomycin and 100 units/ml penicillin supplemented with calcitriol (10 nM). Cultures were incubated in 10% CO2 90% air at 37° C., for 4 days.

[2] = versus calcitriol; cited from earlier work
[3] = system: Ngn3+ progenitor-containing E-cad+ cells; assay: Insulin-producing (MIPGFP+) cell differentiation from sorted E-cad+ cells of E15.5 MIPGFP mouse pancreas; assay type: cell-based; conditions: Nic 10 mM, serum-free and feeder-free culture (FIG. 1c,d)
Procedure: Approximately 7,500 E15.5 [at which the number of Ngn3^+ progenitors is peaked] mouse fetuses from both MIPGFP and Ngn3-GPF/RIP-DsRed lines were used for enrichment/purification of Ngn3^+ progenitors. Mouse pancreases were dissected under a stereoscope (Olympus, Tokyo, Japan). Eleven human fetal pancreases were collected from 18-22 week-fetuses (Table 1) and minced. Both mouse and human pancreases were enzymatically dissociated into single cells under aseptic conditions. […] After each incubation with antibodies, cells were washed twice with FACS buffer (0.1% bovine serum albumin in phosphate buffered saline) and finally re-suspended in this buffer containing 1 μg/ml propidium iodide (PI) or 4′,6-diamidino-2-phenylindole (DAPI) for sorting (FACSAria II, Becton Dickson Labware, Bedford). The purity of sorted cells was determined by post-sort analysis.
Sorted β-cell progenitor-enriched cells or Ngn3^+ β-cell progenitors were differentiated in 96-, 12- or 6-well plates (BD Labware). […] Growth factor-reduced Matrigel (200 μg/ml, BD Biosciences) was overlayed onto cells in the presence of various potential regulators. Thyrotropin releasing hormone (TRH, 100 nM) was purchased from Auspep (Melbourne, Australia). […] Cultures were incubated in 10% CO2 90% air at 37° C., for up to 8 days.
The number of β-like cells was directly quantified under a fluorescence microscope. To verify the accuracy of cell count, at least five randomly chosen fields per well were microphotographed under the inverse IX71 Olympus fluorescence microscope (Olympus, Tokyo, Japan) and the number of β-like cells determined with the Image Pro Plus software installed in the computer.

[4] = system: human islet progenitors (population III); assay: Differentiation of FACS-enriched human fetal islet progenitors, immunofluorescence for insulin and glucagon; assay type: cell-based; conditions: 6 days, 10 mM Nic
Text: as §1, with “After each incubation with antibodies, cells were washed twice with FACS buffer (0.1% bovine serum albumin in phosphate buffered saline) and finally re-suspended in this buffer containing 1 μg/ml propidium iodide (PI) or 4′,6-diamidino-2-phenylindole (DAPI) for sorting (FACSAria II, Becton Dickson Labware, Bedford).” left out, “Data presented represented cell samples with over 90% purity.” left out

Structure (SMILES) | glucose stimulated insulin secretion (GSIS) in dedifferentiated, highly passaged MIN6 cells (MIN6 cells) | β-cell differentiation of Ngn3+ islet progenitors (number of DsRed+ cells) (Ngn3+ islet progenitors; calcitriol 10 nM with or without Nic 10 mM, day 4 (FIG. 17)) | NeuroD expression (NeuroD) | maturation of differentiated β-like cells (GSIS) [1] | hypercalcaemic effect, fold less [2] [fold] | number of differentiated DsRed+ cells, share of optimal levels (Ngn3+ islet progenitors; Nic added at 24 hr after plating, counted at day 4) | DsRed+ cells, share of all cells by FACS (Ngn3+ islet progenitors; day 4 of culture, 0% at the start) [%] | number of MIPGFP+ cells, fold more in the presence of Nic [3] | α and β cells detected immunochemically in cultured population III [4]
C=C1/C(=C\C=C2/CCC[C@]3(C)[C@@H]([C@H](C)CCCC(C)(C)O)CC[C@@H]23)C[C@@H](O)C[C@@H]1O [Calcitriol, 1, 25 (OH)2 vitamin D3] | partially restores GSIS | does not promote β-cell differentiation | further up-regulated | promoted the maturation |  |  |  |  | 
C[C@H](CC#CC(C)(C)O)[C@H]1CC[C@@H]2/C(=C/C=C3C[C@@H](O)C[C@H](O)C3)CCC[C@@]21C [Inecalcitol, 19-nor-14-epi-23-yne calcitriol] |  |  |  |  | 480 |  |  |  | 
NC(=O)c1cccnc1 [Nic, pyridine-3-carboxylic acid amide] | regain partial GSIS |  |  |  |  | approximately 40% | 35 | at least 17 fold | numerous single hormone-positive α and β cells
